In experiment [1] the test system is Rattus norvegicus. As to the kind of experiment: Dose required to lower blood pressure of SHR by 25 mmHg at 4-h post dose p.o. It is filed as functional. To be noted: po.
Experiment [2] has as its target T1, Angiotensin-converting enzyme (Rattus norvegicus, UniProt P47820).
T1 sequence (P47820 whole entry): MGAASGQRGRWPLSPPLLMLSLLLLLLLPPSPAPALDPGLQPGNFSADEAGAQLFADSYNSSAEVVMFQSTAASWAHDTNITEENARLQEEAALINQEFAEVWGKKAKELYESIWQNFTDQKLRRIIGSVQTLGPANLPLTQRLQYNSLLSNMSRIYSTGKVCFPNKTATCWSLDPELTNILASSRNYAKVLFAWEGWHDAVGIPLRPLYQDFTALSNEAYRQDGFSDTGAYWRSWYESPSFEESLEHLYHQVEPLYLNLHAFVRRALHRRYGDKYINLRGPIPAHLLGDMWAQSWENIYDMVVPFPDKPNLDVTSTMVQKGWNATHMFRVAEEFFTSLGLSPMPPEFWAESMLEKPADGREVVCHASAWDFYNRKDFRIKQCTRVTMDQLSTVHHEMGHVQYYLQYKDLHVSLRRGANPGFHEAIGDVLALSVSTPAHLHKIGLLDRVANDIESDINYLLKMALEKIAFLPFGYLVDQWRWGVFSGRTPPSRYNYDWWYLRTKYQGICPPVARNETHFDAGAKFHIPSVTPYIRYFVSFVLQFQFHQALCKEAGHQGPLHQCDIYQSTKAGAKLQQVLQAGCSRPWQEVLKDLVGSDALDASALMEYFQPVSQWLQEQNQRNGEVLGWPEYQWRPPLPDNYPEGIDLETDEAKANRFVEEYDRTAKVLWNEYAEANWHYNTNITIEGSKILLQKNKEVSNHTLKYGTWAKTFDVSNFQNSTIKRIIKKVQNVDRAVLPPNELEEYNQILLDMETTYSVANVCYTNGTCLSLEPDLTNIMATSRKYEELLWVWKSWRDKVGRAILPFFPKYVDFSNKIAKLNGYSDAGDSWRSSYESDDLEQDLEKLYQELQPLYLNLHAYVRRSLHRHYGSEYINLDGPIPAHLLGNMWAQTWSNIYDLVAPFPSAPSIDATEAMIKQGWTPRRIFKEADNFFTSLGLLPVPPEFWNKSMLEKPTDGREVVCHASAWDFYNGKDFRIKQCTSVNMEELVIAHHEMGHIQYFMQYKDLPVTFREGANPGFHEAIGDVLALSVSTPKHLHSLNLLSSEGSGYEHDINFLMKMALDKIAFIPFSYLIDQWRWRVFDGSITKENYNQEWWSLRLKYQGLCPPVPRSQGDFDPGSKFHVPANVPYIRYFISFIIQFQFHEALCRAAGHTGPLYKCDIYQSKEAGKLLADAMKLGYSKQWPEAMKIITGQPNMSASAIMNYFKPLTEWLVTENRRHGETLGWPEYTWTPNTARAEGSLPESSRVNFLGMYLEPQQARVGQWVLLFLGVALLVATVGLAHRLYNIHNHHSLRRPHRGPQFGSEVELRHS
Briefly: In vitro inhibitory activity against Angiotensin I converting enzyme.

The test system of experiment [3] is Rattus norvegicus. Briefly: Dose required to inhibit 50% of the angiotensin I induced vasopressor response p.o. The class given is functional. As to conditions: po, read-out: ID50 (the source's name).

pIC50: −log10 of the molar value.

In general, pIC50 refers to the negative decadic logarithm of the IC50, by convention in mol/L. A higher pIC50 goes with a small IC50.

In the experiment with Rattus norvegicus [1], `CCc1ccc2c(c1)CC(C(=O)O)N2C(=O)C(C)CSC(=O)c1ccccc1` (stereo not drawn) showed an ED25 greater than 100 mg/kg. The negative-log IC50 (pIC50) in experiment [2] is 7.52. Consider `C=CC(=O)N1c2ccccc2CC1C(=O)O` (stereo not drawn), for which, in experiment [2], the pIC50 is less than 3.00. Same read-out and setting: the figure for `C=C(C)C(=O)N1c2ccccc2C[C@@H]1C(=O)O` is less than 3.00; for `C=C(C)C(=O)N1c2ccccc2CC1C(=O)O` (stereo not drawn) it is less than 3.00. In the case of `C[C@H](CSC[C@@H](C)C(=O)N1c2ccccc2C[C@H]1C(=O)O)C(=O)N1c2ccccc2C[C@H]1C(=O)O`, the ED25 in the experiment with Rattus norvegicus [1] is 24 mg/kg. The same compound gave a pIC50 in experiment [2] of 5.89. In turn, `COc1ccc2c(c1)CC(C(=O)O)N2C(=O)C(C)CSC(=O)c1ccccc1` (stereo not drawn) [listing 1 of 2 here] showed a pIC50 in experiment [2] of 7.03. `C=C(C)C(=O)N1c2ccccc2C[C@H]1C(=O)O` gave a pIC50 in experiment [2] of less than 4.00. The same measure, in the same setting: the same measure for `C=C(C)C(=O)N1c2ccc(OC)cc2CC1C(=O)O` (stereo not drawn): less than 3.00. In the case of `O=C(SCCC(=O)N1c2ccccc2CC1C(=O)O)c1ccccc1` (stereo not drawn), in the experiment on Rattus norvegicus [1], the ED25 was 12.5 mg/kg. In addition, the ED50 in the experiment on Rattus norvegicus [3] was 1.95 mg/kg. The compound further showed a pIC50 in experiment [2] of 7.23. Taken in the same sequence, the figures for `C[C@H](CSC(=O)c1ccccc1)C(=O)N1c2ccccc2C[C@H]1C(=O)O` [listing 1 of 2 here] were 1.03 mg/kg, 2 mg/kg and 7.42. Compound `C[C@@H]1CSC(=O)[C@H]2Cc3ccccc3N2C1=O` had a pIC50 in experiment [2] of 4.70. `C1CCC(NC2CCCCC2)CC1.COc1ccc2c(c1)C[C@@H](C(=O)O)N2C(=O)[C@H](C)CSC(=O)c1ccccc1` displayed an ED25 with Rattus norvegicus [1] of 20 mg/kg. In experiment [2], the pIC50 was 7.38. `C[C@H](CSC(=O)c1ccccc1)C(=O)N1c2ccccc2C[C@H]1C(=O)O` [listing 2 of 2 here] had a pIC50 in experiment [2] of 6.49. The same measure, in the same setting: the same measure for `C[C@@H](CSC(=O)c1ccccc1)C(=O)N1c2ccccc2C[C@H]1C(=O)O`: 6.42.

The compound `C[C@@H]1CSC(=O)[C@@H]2Cc3ccccc3N2C1=O` gave an ED25 in the experiment with Rattus norvegicus [1] of 2 mg/kg. For the same compound, in experiment [2], the pIC50 was 7.85. Compound `C[C@@H](CSC(=O)c1ccccc1)C(=O)N1c2ccccc2C[C@@H]1C(=O)O` [listing 1 of 2 here] had a pIC50 in experiment [2] of less than 4.00. With `C1CCC(NC2CCCCC2)CC1.C[C@@H](CSC(=O)c1ccccc1)C(=O)N1c2ccccc2C[C@H]1C(=O)O`, the ED25 with Rattus norvegicus [1] turned out to be 39 mg/kg. Moreover, the pIC50 in experiment [2] was 6.27. `C[C@@H](CSC(=O)c1ccccc1)C(=O)N1c2ccccc2C[C@@H]1C(=O)O` [listing 2 of 2 here] had a pIC50 in experiment [2] of less than 4.00. The same measure, in the same setting: the figure for `COc1ccc2c(c1)CC(C(=O)O)N2C(=O)C(C)CSC(=O)c1ccccc1` (stereo not drawn) [listing 2 of 2 here] is 7.01; for `C[C@@H](CSC(=O)c1ccccc1)C(=O)N1c2ccccc2C[C@H]1C(=O)O` (racemic) it is 5.46.

On to `C[C@@H](CSC(=O)c1ccccc1)C(=O)N1c2ccccc2C[C@@H]1C(=O)O` (racemic), for which the ED25 in the experiment on Rattus norvegicus [1] turned out to be 100 mg/kg. In addition, in experiment [2], the pIC50 was 5.92. For `CC(CSC(=O)c1ccccc1)C(=O)N1c2ccccc2CC1C(=O)O` (stereo in doubt; form 1), the pIC50 in experiment [2] is 6.39.

In experiment [2], `CC(=O)SCC(C)C(=O)N1c2ccccc2CC1C(=O)O` (stereo in doubt; form 1) showed a pIC50 of 4.82. Still for that read-out and setting: the same measure for `CC(CSC(=O)c1ccccc1)C(=O)N1c2ccccc2CC1C(=O)O` (stereo in doubt; form 2): 7.11. In the experiment with Rattus norvegicus [1], `CC(=O)SCC(C)C(=O)N1c2ccccc2CC1C(=O)O` (stereo in doubt; form 2) displayed an ED25 of 13 mg/kg. In experiment [2], this compound had a pIC50 of 7.96. In the experiment with Rattus norvegicus [1], `C[C@H](CS)C(=O)N1CCC[C@H]1C(=O)O` [CAPTOPRIL] had an ED25 of 17.8 mg/kg. For the same compound, the ED50 in the experiment on Rattus norvegicus [3] turned out to be 0.57 mg/kg.

For the origin of these results see ChEMBL document CHEMBL1122455, “(Mercaptopropanoyl)indoline-2-carboxylic acids and related compounds as potent angiotensin converting enzyme inhibitors and antihypertensive agents” (J Med Chem, 1983).
